The source made the active and inactive calls.
Assays:
[1] = cells; type: functional, cell-based
[2] = cells; type: functional, cell-based; remark: listed apart in the source
[3] = target: T1, Heat shock factor protein 1 (Mus musculus, UniProt P38532); test: enhancement of HSF1-driven luciferase signal – cell-based, NIH3T3, luminescence, dose retest, confirmation (AID 435004); type: functional;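 also: stress induced by proteasome inhibitor MG132 added 30 min after compound; luciferase reporter driven by HSF1 response element in NIH3T3 cells; actives raise luminescence as potentiators of the MG132 stress response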
T1 sequence (P38532 whole entry): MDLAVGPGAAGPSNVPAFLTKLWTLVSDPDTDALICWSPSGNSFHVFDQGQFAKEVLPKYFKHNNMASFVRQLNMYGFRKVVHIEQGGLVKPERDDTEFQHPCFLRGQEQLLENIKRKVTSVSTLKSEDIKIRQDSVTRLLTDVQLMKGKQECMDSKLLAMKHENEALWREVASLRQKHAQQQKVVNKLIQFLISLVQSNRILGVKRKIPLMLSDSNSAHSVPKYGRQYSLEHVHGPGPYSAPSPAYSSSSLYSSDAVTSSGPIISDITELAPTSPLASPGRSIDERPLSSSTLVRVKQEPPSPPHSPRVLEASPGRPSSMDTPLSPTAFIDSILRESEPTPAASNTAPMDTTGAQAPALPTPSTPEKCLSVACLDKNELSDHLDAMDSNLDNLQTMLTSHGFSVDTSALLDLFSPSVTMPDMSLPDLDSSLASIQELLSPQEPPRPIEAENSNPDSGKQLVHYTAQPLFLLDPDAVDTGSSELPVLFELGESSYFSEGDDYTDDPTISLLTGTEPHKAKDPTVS

[4] = viability of PTEN-deleted HCT116 cells – cell-based, HCT116 PTEN knockout, dose response (AID 1047); type: functional;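 also: HCT116 colon tumor cells with PTEN knocked out; cells exposed to compound for 60 hours before readout; potency for loss of cell viability measured by luminescence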
[5] = viability of HCT116 lacking mutant beta-catenin – cell-based, human colon tumor, dose response (AID 1045); type: functional;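 also: HCT116 colon tumor cells with beta catenin knocked out; cells exposed to compound for 60 hours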
[6] = target: T1, Heat shock factor protein 1; test: decrease of HSF1-responsive luciferase luminescence – cell-based, NIH3T3, dose retest, confirmation (AID 2382); type: functional;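 also: NIH3T3 fibroblasts with HSF1-driven luciferase reporter stressed by proteasome inhibitor MG132; luminescence from HSF1-driven luciferase expression after 8 hours of MG132 stress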
[7] = Luminescence Cell-Based Dose Retest to Confirm Inhibitors of Cancer Stem Cells. [Related pubchem assays (depositor defined):AID2717, AID2721]; type: functional; conditions: Homo sapiens
[8] = test system: INS1; test: INS-1E survival protection against cytokine death – cell-based, luminescence, retest, dose response (AID 449756); type: functional; conditions: Rattus norvegicus;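 also: cell death triggered by IL-1 beta plus TNF-alpha plus IFN-gamma mixture; protective hits raise ATP signal compared with cytokine alone wells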
[9] = target: Cytochrome P450 2D6 (Homo sapiens, UniProt P10635);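 also: CYP2D6 member of a cytochrome P450 panel assay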
Sequence of Cytochrome P450 2D6 (P10635 whole entry): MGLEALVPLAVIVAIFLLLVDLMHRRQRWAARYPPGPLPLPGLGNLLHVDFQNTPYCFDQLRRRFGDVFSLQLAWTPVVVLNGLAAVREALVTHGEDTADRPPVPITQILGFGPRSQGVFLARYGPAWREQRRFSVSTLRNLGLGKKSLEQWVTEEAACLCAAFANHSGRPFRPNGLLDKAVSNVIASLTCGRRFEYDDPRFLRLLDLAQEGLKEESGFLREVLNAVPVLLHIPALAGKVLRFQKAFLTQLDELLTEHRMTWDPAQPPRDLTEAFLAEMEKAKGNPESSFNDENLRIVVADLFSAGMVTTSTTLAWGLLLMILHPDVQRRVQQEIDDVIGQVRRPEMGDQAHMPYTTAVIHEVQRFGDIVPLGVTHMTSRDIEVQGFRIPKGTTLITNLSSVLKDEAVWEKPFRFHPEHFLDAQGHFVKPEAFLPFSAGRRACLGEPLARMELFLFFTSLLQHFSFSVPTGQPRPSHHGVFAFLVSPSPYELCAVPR

[10] = target: T2, Ubiquitin-conjugating enzyme E2 N (Homo sapiens, UniProt P61088); type: functional;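 also: Dose-response confirmation in a TR-FRET assay detecting UBC13-driven polyubiquitin chain formation, inhibition measured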
T2 sequence (P61088 whole entry): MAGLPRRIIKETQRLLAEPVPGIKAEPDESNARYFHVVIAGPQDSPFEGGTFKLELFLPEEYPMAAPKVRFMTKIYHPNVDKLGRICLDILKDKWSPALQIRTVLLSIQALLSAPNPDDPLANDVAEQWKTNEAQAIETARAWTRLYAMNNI

[11] = target: T3, Replicative DNA helicase DnaB (Mycobacterium tuberculosis, UniProt P9WMR3); test: DnaB intein splicing inhibitors, dose response, biochemical, cell-free fluorescence (AID 449749); type: functional
T3 sequence (P9WMR3 whole entry): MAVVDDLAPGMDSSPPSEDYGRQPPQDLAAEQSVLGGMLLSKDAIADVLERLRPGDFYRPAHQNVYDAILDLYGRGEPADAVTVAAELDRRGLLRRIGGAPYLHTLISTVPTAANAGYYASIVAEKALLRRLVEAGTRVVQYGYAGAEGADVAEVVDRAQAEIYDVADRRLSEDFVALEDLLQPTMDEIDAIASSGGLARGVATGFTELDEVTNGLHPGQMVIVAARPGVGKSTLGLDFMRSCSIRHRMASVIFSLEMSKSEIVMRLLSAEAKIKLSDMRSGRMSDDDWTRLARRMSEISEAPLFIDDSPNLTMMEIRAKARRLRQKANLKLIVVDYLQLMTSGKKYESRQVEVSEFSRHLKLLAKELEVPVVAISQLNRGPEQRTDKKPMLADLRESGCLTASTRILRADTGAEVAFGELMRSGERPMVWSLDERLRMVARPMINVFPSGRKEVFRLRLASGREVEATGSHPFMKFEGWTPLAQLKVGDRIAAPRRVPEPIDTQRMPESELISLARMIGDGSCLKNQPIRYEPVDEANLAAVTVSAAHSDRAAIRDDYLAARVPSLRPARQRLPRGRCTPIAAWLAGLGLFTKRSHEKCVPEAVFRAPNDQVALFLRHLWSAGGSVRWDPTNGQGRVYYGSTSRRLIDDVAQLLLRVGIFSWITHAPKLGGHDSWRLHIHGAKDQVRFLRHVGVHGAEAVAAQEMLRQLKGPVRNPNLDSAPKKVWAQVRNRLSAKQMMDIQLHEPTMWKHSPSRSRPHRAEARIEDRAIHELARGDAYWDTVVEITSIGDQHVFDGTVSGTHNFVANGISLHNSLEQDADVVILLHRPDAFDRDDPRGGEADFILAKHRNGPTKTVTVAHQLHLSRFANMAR

[12] = target: T4, Protein RecA (Mycobacterium tuberculosis, UniProt P9WHJ3); test: Fluorescence Cell-Free Homogeneous Dose Retest to Identify Inhibitors of RecA-Intein Splicing Activity. [Related pubchem assays (depositor defined):AID2097, AID2223, AID489010, AID492950]; type: functional
T4 sequence (P9WHJ3 whole entry): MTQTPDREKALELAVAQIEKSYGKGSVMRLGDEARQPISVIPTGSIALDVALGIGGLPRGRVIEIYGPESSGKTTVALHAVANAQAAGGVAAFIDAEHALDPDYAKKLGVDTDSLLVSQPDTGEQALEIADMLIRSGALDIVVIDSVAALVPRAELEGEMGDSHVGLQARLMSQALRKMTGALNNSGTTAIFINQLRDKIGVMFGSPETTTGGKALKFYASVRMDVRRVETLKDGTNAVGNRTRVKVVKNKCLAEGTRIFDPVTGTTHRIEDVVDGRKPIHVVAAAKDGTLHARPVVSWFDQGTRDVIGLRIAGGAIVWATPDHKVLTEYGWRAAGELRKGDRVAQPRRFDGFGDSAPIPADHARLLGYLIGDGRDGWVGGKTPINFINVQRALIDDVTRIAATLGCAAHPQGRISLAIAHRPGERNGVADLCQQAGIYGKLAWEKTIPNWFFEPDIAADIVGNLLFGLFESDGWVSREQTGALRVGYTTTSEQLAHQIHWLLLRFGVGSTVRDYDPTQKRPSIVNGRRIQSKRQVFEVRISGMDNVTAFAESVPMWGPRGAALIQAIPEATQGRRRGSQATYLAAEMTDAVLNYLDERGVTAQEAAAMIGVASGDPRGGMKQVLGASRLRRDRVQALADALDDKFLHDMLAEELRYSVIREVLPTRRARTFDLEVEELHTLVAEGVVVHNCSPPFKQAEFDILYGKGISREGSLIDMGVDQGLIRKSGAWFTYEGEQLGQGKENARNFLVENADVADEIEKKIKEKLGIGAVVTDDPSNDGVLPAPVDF

[13] = Trypanosoma cruzi growth suppression in host cells – NIH3T3 host cells, beta-gal luminescence, confirmation (AID 2044); type: functional, cell-based;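 also: intracellular parasites grown in NIH/3T3 mouse fibroblasts as host cells; luminescent beta-galactosidase reporter signal from transgenic T. cruzi replicating inside host cells; inhibitors lower the luminescence signal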
[14] = NIH3T3 cell viability loss – ATP luminescence, mouse fibroblasts, counter-screen, dose response (AID 2010); type: functional, cell-based;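 also: cells exposed to compound for about 90 hours before reading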
[15] = luciferase reporter signal suppression in cells – H4 neuroglioma cells, luminescence, dose response (AID 1990); type: functional, cell-based
[16] = Luminescence Cell-Based Dose Response HTS to Identify Inhibitors of 5'UTR Stem-Loop Driven Prion Protein mRNA Translation in H4 Neuroglioblastoma Cells. [Related pubchem assays: 1827 (Project Summary), 1813 (Primary HTS)]; type: functional
[17] = target: Cytochrome P450 3A4 (Homo sapiens, UniProt P08684);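 also: CYP3A4 tested as one member of a cytochrome P450 panel screen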
Sequence of Cytochrome P450 3A4 (P08684 whole entry): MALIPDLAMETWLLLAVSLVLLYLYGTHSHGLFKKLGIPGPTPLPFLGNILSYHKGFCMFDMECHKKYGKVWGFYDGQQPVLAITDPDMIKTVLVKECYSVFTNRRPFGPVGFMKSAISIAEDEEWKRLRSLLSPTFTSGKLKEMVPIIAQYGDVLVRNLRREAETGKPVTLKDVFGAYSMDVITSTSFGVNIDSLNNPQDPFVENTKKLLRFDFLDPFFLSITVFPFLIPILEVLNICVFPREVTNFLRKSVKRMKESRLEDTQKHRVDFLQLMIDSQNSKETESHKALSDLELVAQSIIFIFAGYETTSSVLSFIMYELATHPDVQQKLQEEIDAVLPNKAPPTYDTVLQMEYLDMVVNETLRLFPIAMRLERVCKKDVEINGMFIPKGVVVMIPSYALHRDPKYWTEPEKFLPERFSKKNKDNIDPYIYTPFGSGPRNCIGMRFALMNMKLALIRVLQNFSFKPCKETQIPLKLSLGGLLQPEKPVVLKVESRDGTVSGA

[18] = viability of uninfected HEp-2 cells – cell-based, HTS, cytotoxicity control for RSV inhibitor project, dose response (AID 2410); type: functional; conditions: human respiratory syncytial virus

For `CNC(=O)C1CC(=O)N(c2ccc(OCC(=O)N3CCCC3)cc2)C1` (stereo unspecified), the EC50 [1] was > 350 µM (not active), the EC50 [2] was > 350 µM (not active) and the EC50 [3] was > 260 µM (inactive).
With `Cc1ccc(S(=O)(=O)c2c(N)n(Cc3ccco3)c3nc4ccccc4nc23)cc1C` the EC50 [4] was 18.4 µM (active) and the EC50 [5] was 20.1 µM (active).
For `CCOC(=O)c1cc2sccc2n1CC(=O)Nc1ccc(OC)cc1`, the EC50 [1] was > 350 µM (not active), the EC50 [6] was > 195 µM (not active) and the EC50 [2] was > 350 µM (not active).
With `Cc1ccc(C)c(NC(S)=NC(NC(=O)Cc2cccc3ccccc23)C(Cl)(Cl)Cl)c1` (stereo unspecified) the EC50 [4] was 13.9 µM (active), the EC50 [5] was 15.5 µM (active) and the AC50 [7] was 0.861 µM (active). For the same molecule, the AC50 [8] was 4.16 µM (active).
In the case of `O=C(c1ccco1)N1CCC[C@@]2(CCN(c3ncccn3)C2)C1`, the AC50 [9] is reported as 25.1 µM (inconclusive).
For `C=C(C)CN=C(S)N=Nc1c(O)[nH]c2ccc([N+](=O)[O-])cc12`, the IC50 [10] was > 20 µM (inactive), the AC50 [11] was 52.8 µM (active) and the EC50 [12] was 151 µM (inconclusive).
For `CCOC(=O)c1c(NC(=O)CSc2nc3cc(Cl)ccc3c(=O)n2Cc2ccco2)sc(C(=O)N(C)C)c1C`, the EC50 [13] was 0.999 µM (active), the EC50 [4] was 6.8 µM (active) and the EC50 [14] was > 60 µM (inconclusive). For the same molecule, the EC50 [5] was 12.2 µM (active) and the EC50 [3] was 7.33 µM (active).
For `CCC(CC)NC(=O)c1cc2c(C)nn(Cc3ccccc3Cl)c2s1`, the EC50 [15] was 11.7 µM (active) and the EC50 [16] was > 120 µM (not active).
For `COc1ccc(CNc2ccnc(-c3ccccc3Cl)n2)c(OC)c1`, the AC50 [9] was 39.8 µM (inconclusive).
For `Cc1cccc(NC(S)=Nc2ccc(Br)cc2)c1`, the AC50 [9] was 8.91 µM (inconclusive) and the AC50 [17] was 25.1 µM (inconclusive).
For `CCCn1c(SCC(=O)N2CCc3ccccc3C2)nc2c1c(=O)n(C)c(=O)n2C`, the EC50 [1] was > 350 µM (not active) and the EC50 [2] was > 350 µM (not active).
For `CC(C)(C)NC(=O)CN(C(=O)Cn1nnc(-c2ccc(Cl)cc2)n1)C1CCN(Cc2ccccc2)CC1`, the CC50 [18] was 25.7 µM (active), the EC50 [4] was 41.4 µM (active) and the EC50 [5] was 37.9 µM (active).

From ChEMBL document CHEMBL1201862, “PubChem BioAssay data set” (2004)
